Measured values from patent US20130212744A1, “METHOD OF REDUCING INSECT-VECTORED VIRAL INFECTIONS” (priority 2010, published 2013).

Test system: whitefly Bemisia tabaci adults
Test: Soil use (drench) field trial on tomato, efficacy on whitefly adults
Format: in vivo
Conditions: for Emax at 12.5 g/ha: 12.5 g ai/ha; for Emax at 25 g/ha: 25 g ai/ha; for Emax at 100 g/ha: 100 g ai/ha; for Emax at 150 g/ha: 150 g ai/ha
Description: Two soil applied studies were carried out in Elhasanya, Egypt in 2009 on tomato plants with the main goal to measure efficacy on the whitefly Bemisia tabaci. The plot size was 4.8 m^2 and 6 replicates were used in the trial. Products were applied once on young tomato plants at BBCH stage 14 as a drench. The spray volume was at the first application 350 l/ha. The evaluation of this study was done counting the adult whiteflies (Bemisia tabaci) as well as the nymphs and the eggs in each plot. In addition to the direct whitefly effect, visual symptoms of the virus, mainly TYLCV (tomato yellow leaf curl virus) were evaluated also.

In the case of CSC(=O)c1cccc2nnsc12 [ASM, S-methyl benzo[1,2,3]thiadiazole-7-carbothioate], the Emax at 12.5 g/ha (120 h, 5DAA, Trial 1) is reported as 40%, the Emax at 12.5 g/ha (120 h, 5DAA, Trial 2) is reported as 29% and the Emax at 25 g/ha (120 h, 5DAA, Trial 1) is reported as 50%. The Emax at 25 g/ha (120 h, 5DAA, Trial 2) was 36%, the Emax at 12.5 g/ha (240 h, 10DAA, Trial 1) was 41% and the Emax at 12.5 g/ha (240 h, 10DAA, Trial 2) was 34%. For the same molecule, the Emax at 25 g/ha (240 h, 10DAA, Trial 1) was 44%, the Emax at 25 g/ha (240 h, 10DAA, Trial 2) was 45% and the Emax at 12.5 g/ha (360 h, 15DAA, Trial 1) was 58%. The Emax at 12.5 g/ha (360 h, 15DAA, Trial 2) was 35%, the Emax at 25 g/ha (360 h, 15DAA, Trial 1) was 64% and the Emax at 25 g/ha (360 h, 15DAA, Trial 2) was 45%. The Emax at 12.5 g/ha (480 h, 20DAA, Trial 1) was 39%, the Emax at 12.5 g/ha (480 h, 20DAA, Trial 2) was 31% and the Emax at 25 g/ha (480 h, 20DAA, Trial 1) was 42%. The Emax at 25 g/ha (480 h, 20DAA, Trial 2) was 43%, the Emax at 12.5 g/ha (600 h, 25DAA, Trial 1) was 29% and the Emax at 12.5 g/ha (600 h, 25DAA, Trial 2) was 25%. It also gave an Emax at 25 g/ha (600 h, 25DAA, Trial 1) of 31%, an Emax at 25 g/ha (600 h, 25DAA, Trial 2) of 35% and an Emax at 12.5 g/ha (720 h, 30DAA, Trial 1) of 22%. The Emax at 12.5 g/ha (720 h, 30DAA, Trial 2) was 19%, the Emax at 25 g/ha (720 h, 30DAA, Trial 1) was 26% and the Emax at 25 g/ha (720 h, 30DAA, Trial 2) was 30%. It also gave an Emax at 12.5 g/ha (840 h, 35DAA, Trial 1) of 14%, an Emax at 12.5 g/ha (840 h, 35DAA, Trial 2) of 12% and an Emax at 25 g/ha (840 h, 35DAA, Trial 1) of 26%. The Emax at 25 g/ha (840 h, 35DAA, Trial 2) was 23%, the Emax at 12.5 g/ha (960 h, 40DAA, Trial 1) was 5% and the Emax at 12.5 g/ha (960 h, 40DAA, Trial 2) was 9%. The Emax at 25 g/ha (960 h, 40DAA, Trial 1) was 5% and the Emax at 25 g/ha (960 h, 40DAA, Trial 2) was 10%.

CNC(=O)c1cc(C#N)cc(C)c1NC(=O)c1cc(Br)nn1-c1ncccc1Cl [CYNT, 3-bromo-1-(3-chloro-2-pyridyl)-4′-cyano-2′-methyl-6′-(methylcarbamoyl)pyrazole-5-carboxanilide] showed an Emax at 100 g/ha (120 h, 5DAA, Trial 1) of 79%, an Emax at 100 g/ha (120 h, 5DAA, Trial 2) of 70% and an Emax at 150 g/ha (120 h, 5DAA, Trial 1) of 83%. It also gave an Emax at 150 g/ha (120 h, 5DAA, Trial 2) of 76%, an Emax at 100 g/ha (240 h, 10DAA, Trial 1) of 75% and an Emax at 100 g/ha (240 h, 10DAA, Trial 2) of 71%. It also gave an Emax at 150 g/ha (240 h, 10DAA, Trial 1) of 75%, an Emax at 150 g/ha (240 h, 10DAA, Trial 2) of 80% and an Emax at 100 g/ha (360 h, 15DAA, Trial 1) of 78%. For the same molecule, the Emax at 100 g/ha (360 h, 15DAA, Trial 2) was 76%, the Emax at 150 g/ha (360 h, 15DAA, Trial 1) was 79% and the Emax at 150 g/ha (360 h, 15DAA, Trial 2) was 83%. For the same molecule, the Emax at 100 g/ha (480 h, 20DAA, Trial 1) was 72%, the Emax at 100 g/ha (480 h, 20DAA, Trial 2) was 74% and the Emax at 150 g/ha (480 h, 20DAA, Trial 1) was 74%. The Emax at 150 g/ha (480 h, 20DAA, Trial 2) was 82%, the Emax at 100 g/ha (600 h, 25DAA, Trial 1) was 66% and the Emax at 100 g/ha (600 h, 25DAA, Trial 2) was 72%. For the same molecule, the Emax at 150 g/ha (600 h, 25DAA, Trial 1) was 69%, the Emax at 150 g/ha (600 h, 25DAA, Trial 2) was 80% and the Emax at 100 g/ha (720 h, 30DAA, Trial 1) was 61%. The Emax at 100 g/ha (720 h, 30DAA, Trial 2) was 65%, the Emax at 150 g/ha (720 h, 30DAA, Trial 1) was 67% and the Emax at 150 g/ha (720 h, 30DAA, Trial 2) was 71%. The Emax at 100 g/ha (840 h, 35DAA, Trial 1) was 53%, the Emax at 100 g/ha (840 h, 35DAA, Trial 2) was 57% and the Emax at 150 g/ha (840 h, 35DAA, Trial 1) was 59%. For the same molecule, the Emax at 150 g/ha (840 h, 35DAA, Trial 2) was 62%, the Emax at 100 g/ha (960 h, 40DAA, Trial 1) was 39% and the Emax at 100 g/ha (960 h, 40DAA, Trial 2) was 43%. For the same molecule, the Emax at 150 g/ha (960 h, 40DAA, Trial 1) was 45% and the Emax at 150 g/ha (960 h, 40DAA, Trial 2) was 45%.
